Test results: patent US5980899A, “Identification of peptides that stimulate hepatitis C virus specific cytotoxic T cells” (The United States of America as represented by the …, priority 1992, dated 1999)

How the values were obtained:
[1] = tested on: HCV; details: chronic HCV liver disease; cited from earlier work
[2] = tested on: T cells; test: Response to P17 stimulation in a chronically infected chimpanzee; type: cell-based; details: one chronically infected chimpanzee
[3] = tested on: 18Neo (BALB/c 3T3 fibroblast, H-2^d) target cells

Row | Compound | patients who respond [1] | responders who relapse after treatment is stopped [1] | cytotoxicity in response to stimulation [2] | toxicity that might affect activity in CTL stimulation or utility in vivo [3]
1 | α-interferon | less than half | approximately 50% |  | 
2 | CSCC[C@H](N)C(=O)N[C@@H](CO)C(=O)N[C@@H](Cc1ccc(O)cc1)C(=O)N[C@@H](CO)C(=O)N[C@@H](Cc1c[nH]c2ccccc12)C(=O)N[C@H](C(=O)NCC(=O)N[C@@H](C)C(=O)N[C@@H](CC(C)C)C(=O)N[C@H](C(=O)N[C@H](C(=O)N1CCC[C@H]1C(=O)N[C@@H](CS)C(=O)N[C@@H](C)C(=O)N[C@@H](C)C(=O)N[C@@H](CCC(=O)O)C(=O)O)[C@@H](C)O)C(C)C)[C@@H](C)O [P17, MSYSWTGALVTPCAAE] |  |  | not cytotoxicity | did not show any toxicity
